# Assay results taken from patent US20230085307A1, “PYRIDAZINONE COMPOUND AND HERBICIDE” (NISSAN CHEMICAL CORPORATION, priority 2019, published 2023).
# Legend:
# blackgrass = test: Test Example 5: herbicidal effect by foliage application, plastic box (Table 20, symbol J); type: in vivo, blackgrass (Alopecurus myosuroides)
# How it was run: (§1)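 Post-emergence foliar test in sterilized diluvial soil. Compound applied as water-diluted emulsion at a predetermined rate to 14-day-old plants; evaluation at three weeks.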
# barnyard grass [1] = test: Test Example 5: herbicidal effect by foliage application, plastic box (Table 20, symbol H); type: in vivo, barnyard grass (Echinochloa crus-galli)
# How it was run: as §1
# southern crabgrass = test: Test Example 5: herbicidal effect by foliage application, plastic box (Table 20, symbol F); type: in vivo, southern crabgrass (Digitaria ciliaris)
# How it was run: as §1
# Italian ryegrass = test: Test Example 5: herbicidal effect by foliage application, plastic box (Table 20, symbol K); type: in vivo, Italian ryegrass (Lolium multiflorum)
# How it was run: as §1
# wild oat = test: Test Example 5: herbicidal effect by foliage application, plastic box (Table 20, symbol I); type: in vivo, wild oat (Avena fatua)
# How it was run: as §1
# false cleavers = test: Test Example 5: herbicidal effect by foliage application, plastic box (Table 20, symbol Q); type: in vivo, false cleavers (Galium spurium)
# Excerpt: [Test Example 5] Herbicidal Effect Test by Foliage Application
# Sterilized diluvial soil was placed in a plastic box having a length of 21 cm, a width of 13 cm, and a depth of 7 cm. The seeds of each of southern crabgrass, green foxtail, barnyard grass, wild oat, blackgrass, Italian ryegrass, windgrass, velvetleaf, redroot pigweed, lambsquarters, chickweed, false cleavers, persian speedwell, corn, soybean, rice, wheat, beet, and rapeseed were sowed in a spot-like manner and covered with the soil having a thickness of about 1.5 cm. Thereafter, the plants were grown in a greenhouse at 25° C. to 30° C. After 14-day growth of the plants, the emulsion agent of the compound of the present invention prepared according to Formulation Example 2 was diluted with water so as to achieve a predetermined herbicide amount, and the diluted emulsion agent was uniformly applied to a foliage part with a small-sized spray. Three weeks after the herbicide application, the effect of the herbicide on each plant was evaluated according to the criteria of Test Example 1.
# redroot pigweed = test: Test Example 5: herbicidal effect by foliage application, plastic box (Table 20, symbol N); type: in vivo, redroot pigweed (Amaranthus retroflexus)
# How it was run: as §1
# rice flat sedge = test: Test Example 3: herbicidal effect by foliage application, Wagner pot (Table 18, symbol E); type: in vivo, rice flat sedge (Cyperus iria)
# How it was run: (§2)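 Plants were sown in alluvial soil held under 0.1–0.5 cm standing water and grown 14 days in a greenhouse at 25–30 °C. An emulsifiable formulation, water-diluted to the set dose, was then sprayed onto the foliage, and effects were scored three weeks later using previously defined criteria.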
# green foxtail = test: Test Example 5: herbicidal effect by foliage application, plastic box (Table 20, symbol G); type: in vivo, green foxtail (Setaria viridis)
# How it was run: as §1
# velvetleaf = test: Test Example 5: herbicidal effect by foliage application, plastic box (Table 20, symbol M); type: in vivo, velvetleaf (Abutilon theophrasti)
# How it was run: as §1
# lambsquarters = test: Test Example 5: herbicidal effect by foliage application, plastic box (Table 20, symbol O); type: in vivo, lambsquarters (Chenopodium album)
# How it was run: as §1
# persian speedwell = test: Test Example 5: herbicidal effect by foliage application, plastic box (Table 20, symbol R); type: in vivo, Persian speedwell (Veronica persica)
# How it was run: as §1
# Chinese sprangletop = test: Test Example 3: herbicidal effect by foliage application, Wagner pot (Table 18, symbol D); type: in vivo, chinese sprangletop (Leptochloa chinensis)
# How it was run: as §2
# chickweed = test: Test Example 5: herbicidal effect by foliage application, plastic box (Table 20, symbol P); type: in vivo, common chickweed (Stellaria media)
# How it was run: as §1
# windgrass = test: Test Example 5: herbicidal effect by foliage application, plastic box (Table 20, symbol L); type: in vivo, windgrass (Apera spica-venti)
# How it was run: as §1
# barnyard grass [2] = test: Test Example 3: herbicidal effect by foliage application, Wagner pot (Table 18, symbol H); type: in vivo, barnyard grass (Echinochloa crus-galli)
# How it was run: as §2
# [3] = foliage application, AAH 197 g/ha, three weeks after application
# [4] = foliage application, AAH 320 g/ha, three weeks after application
# [5] = foliage application, 320 g/ha, evaluated three weeks after application
# [6] = foliage application, 320 g/ha, three weeks after application
# [7] = 320 g/ha, foliage application after 14-day growth, evaluated three weeks after application
smiles,measurement,setting,value
Cc1nn(C)c(=O)c(-c2c(-c3cc4c(cc3Cl)OCCO4)sc3ccccc23)c1O [1-095],"J: blackgrass, herbicidal effect",blackgrass; [3],0 (Herbicidal rate of 5% or less (almost no effect))
same,"H: barnyard grass, herbicidal effect",barnyard grass [1]; [3],0 (Herbicidal rate of 5% or less (almost no effect))
same,"F: southern crabgrass, herbicidal effect",southern crabgrass; [3],0 (Herbicidal rate of 5% or less (almost no effect))
same,"K: Italian ryegrass, herbicidal effect",Italian ryegrass; [3],0 (Herbicidal rate of 5% or less (almost no effect))
same,"I: wild oat, herbicidal effect",wild oat; [3],0 (Herbicidal rate of 5% or less (almost no effect))
same,"Q: false cleavers, herbicidal effect",false cleavers; [3],3 (Herbicidal rate of 40% or more and less than 70%)
same,"N: redroot pigweed, herbicidal effect",redroot pigweed; [3],0 (Herbicidal rate of 5% or less (almost no effect))
same,"herbicidal effect on E (rice flat sedge), rating 0-5",rice flat sedge; 197 g/ha,1 (Herbicidal rate of 5% or more and less than 20%)
same,"G: green foxtail, herbicidal effect",green foxtail; [3],0 (Herbicidal rate of 5% or less (almost no effect))
same,"M: velvetleaf, herbicidal effect",velvetleaf; [3],0 (Herbicidal rate of 5% or less (almost no effect))
same,"O: lambsquarters, herbicidal effect",lambsquarters; [3],0 (Herbicidal rate of 5% or less (almost no effect))
same,"R: persian speedwell, herbicidal effect",persian speedwell; [3],4 (Herbicidal rate of 70% or more and less than 90%)
same,"herbicidal effect on D (Chinese sprangletop), rating 0-5",Chinese sprangletop; 197 g/ha,0 (Herbicidal rate of 5% or less (almost no effect))
same,"P: chickweed, herbicidal effect",chickweed; [3],3 (Herbicidal rate of 40% or more and less than 70%)
same,"L: windgrass, herbicidal effect",windgrass; [3],0 (Herbicidal rate of 5% or less (almost no effect))
same,"herbicidal effect on H (barnyard grass), rating 0-5",barnyard grass [2]; 197 g/ha,4 (Herbicidal rate of 70% or more and less than 90%)
Cc1nn(C)c(=O)c(-c2c(-c3ccc(Oc4ccccc4)cc3)sc3ccccc23)c1O [1-149],"J: blackgrass, herbicidal effect",blackgrass; [4],0 (Herbicidal rate of 5% or less (almost no effect))
same,"H: barnyard grass, herbicidal effect",barnyard grass [1]; [4],3 (Herbicidal rate of 40% or more and less than 70%)
same,"F: southern crabgrass, herbicidal effect",southern crabgrass; [4],3 (Herbicidal rate of 40% or more and less than 70%)
same,"K: Italian ryegrass, herbicidal effect",Italian ryegrass; [4],0 (Herbicidal rate of 5% or less (almost no effect))
same,"I: wild oat, herbicidal effect",wild oat; [4],0 (Herbicidal rate of 5% or less (almost no effect))
same,"Q: false cleavers, herbicidal effect",false cleavers; [4],5 (Herbicidal rate of 90% or more (almost completely withered))
same,"N: redroot pigweed, herbicidal effect",redroot pigweed; [4],5 (Herbicidal rate of 90% or more (almost completely withered))
same,"herbicidal effect on E (rice flat sedge), rating 0-5",rice flat sedge; 320 g/ha,5 (Herbicidal rate of 90% or more (almost completely withered))
same,"G: green foxtail, herbicidal effect",green foxtail; [4],4 (Herbicidal rate of 70% or more and less than 90%)
same,"M: velvetleaf, herbicidal effect",velvetleaf; [4],2 (Herbicidal rate of 20% or more and less than 40%)
same,"O: lambsquarters, herbicidal effect",lambsquarters; [4],4 (Herbicidal rate of 70% or more and less than 90%)
same,"R: persian speedwell, herbicidal effect",persian speedwell; [4],5 (Herbicidal rate of 90% or more (almost completely withered))
same,"herbicidal effect on D (Chinese sprangletop), rating 0-5",Chinese sprangletop; 320 g/ha,3 (Herbicidal rate of 40% or more and less than 70%)
same,"P: chickweed, herbicidal effect",chickweed; [4],3 (Herbicidal rate of 40% or more and less than 70%)
same,"L: windgrass, herbicidal effect",windgrass; [4],0 (Herbicidal rate of 5% or less (almost no effect))
same,"herbicidal effect on H (barnyard grass), rating 0-5",barnyard grass [2]; 320 g/ha,3 (Herbicidal rate of 40% or more and less than 70%)
COc1cc(F)ccc1-c1sc2ccc(-c3ccc(OC(C)C)cc3)cc2c1-c1c(O)c(C)nn(C)c1=O [2-167],herbicidal effect on J: blackgrass (criteria 0-5),blackgrass; [5],0 (Herbicidal rate of 5% or less (almost no effect))
same,herbicidal effect on H: barnyard grass (criteria 0-5),barnyard grass [1]; [5],0 (Herbicidal rate of 5% or less (almost no effect))
same,herbicidal effect on F: southern crabgrass (criteria 0-5),southern crabgrass; [5],0 (Herbicidal rate of 5% or less (almost no effect))
same,herbicidal effect on K: Italian ryegrass (criteria 0-5),Italian ryegrass; [5],0 (Herbicidal rate of 5% or less (almost no effect))
same,herbicidal effect on I: wild oat (criteria 0-5),wild oat; [5],0 (Herbicidal rate of 5% or less (almost no effect))
same,herbicidal effect on Q: false cleavers (criteria 0-5),false cleavers; [5],0 (Herbicidal rate of 5% or less (almost no effect))
same,herbicidal effect on N: redroot pigweed (criteria 0-5),redroot pigweed; [5],3 (Herbicidal rate of 40% or more and less than 70%)
same,herbicidal effect on G: green foxtail (criteria 0-5),green foxtail; [5],0 (Herbicidal rate of 5% or less (almost no effect))
same,herbicidal effect on M: velvetleaf (criteria 0-5),velvetleaf; [5],0 (Herbicidal rate of 5% or less (almost no effect))
same,herbicidal effect on O: lambsquarters (criteria 0-5),lambsquarters; [5],0 (Herbicidal rate of 5% or less (almost no effect))
same,herbicidal effect on R: persian speedwell (criteria 0-5),persian speedwell; [5],0 (Herbicidal rate of 5% or less (almost no effect))
same,herbicidal effect on P: chickweed (criteria 0-5),chickweed; [5],0 (Herbicidal rate of 5% or less (almost no effect))
same,herbicidal effect on L: windgrass (criteria 0-5),windgrass; [5],0 (Herbicidal rate of 5% or less (almost no effect))
CCCC(=O)Oc1c(C)nn(C)c(=O)c1-c1c(-c2ccc(OC)cc2)sc2cc(C)ccc12 [3-052],"J: blackgrass, herbicidal effect grade",blackgrass; [6],0 (Herbicidal rate of 5% or less (almost no effect))
same,"H: barnyard grass, herbicidal effect grade",barnyard grass [1]; [6],0 (Herbicidal rate of 5% or less (almost no effect))
same,"F: southern crabgrass, herbicidal effect grade",southern crabgrass; [6],0 (Herbicidal rate of 5% or less (almost no effect))
same,"K: Italian ryegrass, herbicidal effect grade",Italian ryegrass; [6],0 (Herbicidal rate of 5% or less (almost no effect))
same,"I: wild oat, herbicidal effect grade",wild oat; [6],0 (Herbicidal rate of 5% or less (almost no effect))
same,"Q: false cleavers, herbicidal effect grade",false cleavers; [6],2 (Herbicidal rate of 20% or more and less than 40%)
same,"N: redroot pigweed, herbicidal effect grade",redroot pigweed; [6],0 (Herbicidal rate of 5% or less (almost no effect))
same,"G: green foxtail, herbicidal effect grade",green foxtail; [6],3 (Herbicidal rate of 40% or more and less than 70%)
same,"M: velvetleaf, herbicidal effect grade",velvetleaf; [6],3 (Herbicidal rate of 40% or more and less than 70%)
same,"O: lambsquarters, herbicidal effect grade",lambsquarters; [6],0 (Herbicidal rate of 5% or less (almost no effect))
same,"R: persian speedwell, herbicidal effect grade",persian speedwell; [6],5 (Herbicidal rate of 90% or more (almost completely withered))
same,"P: chickweed, herbicidal effect grade",chickweed; [6],5 (Herbicidal rate of 90% or more (almost completely withered))
same,"L: windgrass, herbicidal effect grade",windgrass; [6],0 (Herbicidal rate of 5% or less (almost no effect))
COc1cccc(-c2sc3c(Cl)cccc3c2-c2c(O)c(C)nn(C)c2=O)c1 [4-064],herbicidal effect on J: blackgrass (evaluation grade 0-5),blackgrass; [7],0 (Herbicidal rate of 5% or less (almost no effect))
same,herbicidal effect on H: barnyard grass (evaluation grade 0-5),barnyard grass [1]; [7],1 (Herbicidal rate of 5% or more and less than 20%)
same,herbicidal effect on F: southern crabgrass (evaluation grade 0-5),southern crabgrass; [7],1 (Herbicidal rate of 5% or more and less than 20%)
same,herbicidal effect on K: Italian ryegrass (evaluation grade 0-5),Italian ryegrass; [7],3 (Herbicidal rate of 40% or more and less than 70%)
same,herbicidal effect on I: wild oat (evaluation grade 0-5),wild oat; [7],0 (Herbicidal rate of 5% or less (almost no effect))
same,herbicidal effect on Q: false cleavers (evaluation grade 0-5),false cleavers; [7],1 (Herbicidal rate of 5% or more and less than 20%)
same,herbicidal effect on N: redroot pigweed (evaluation grade 0-5),redroot pigweed; [7],5 (Herbicidal rate of 90% or more (almost completely withered))
same,herbicidal effect on rice flat sedge (E),rice flat sedge; 320 g/ha,4 (Herbicidal rate of 70% or more and less than 90%)
same,herbicidal effect on G: green foxtail (evaluation grade 0-5),green foxtail; [7],3 (Herbicidal rate of 40% or more and less than 70%)
same,herbicidal effect on M: velvetleaf (evaluation grade 0-5),velvetleaf; [7],3 (Herbicidal rate of 40% or more and less than 70%)
same,herbicidal effect on O: lambsquarters (evaluation grade 0-5),lambsquarters; [7],3 (Herbicidal rate of 40% or more and less than 70%)
same,herbicidal effect on R: persian speedwell (evaluation grade 0-5),persian speedwell; [7],5 (Herbicidal rate of 90% or more (almost completely withered))
same,herbicidal effect on Chinese sprangletop (D),Chinese sprangletop; 320 g/ha,3 (Herbicidal rate of 40% or more and less than 70%)
same,herbicidal effect on P: chickweed (evaluation grade 0-5),chickweed; [7],5 (Herbicidal rate of 90% or more (almost completely withered))
same,herbicidal effect on L: windgrass (evaluation grade 0-5),windgrass; [7],5 (Herbicidal rate of 90% or more (almost completely withered))
same,herbicidal effect on barnyard grass (H),barnyard grass [2]; 320 g/ha,4 (Herbicidal rate of 70% or more and less than 90%)
